One assay deals with LIM domain kinase 1 (Homo sapiens, UniProt P53667).
In assay [1] the target is T1, Acyl-CoA dehydrogenase family member 11 (Homo sapiens, UniProt Q709F0).
T1 sequence (Q709F0 whole entry): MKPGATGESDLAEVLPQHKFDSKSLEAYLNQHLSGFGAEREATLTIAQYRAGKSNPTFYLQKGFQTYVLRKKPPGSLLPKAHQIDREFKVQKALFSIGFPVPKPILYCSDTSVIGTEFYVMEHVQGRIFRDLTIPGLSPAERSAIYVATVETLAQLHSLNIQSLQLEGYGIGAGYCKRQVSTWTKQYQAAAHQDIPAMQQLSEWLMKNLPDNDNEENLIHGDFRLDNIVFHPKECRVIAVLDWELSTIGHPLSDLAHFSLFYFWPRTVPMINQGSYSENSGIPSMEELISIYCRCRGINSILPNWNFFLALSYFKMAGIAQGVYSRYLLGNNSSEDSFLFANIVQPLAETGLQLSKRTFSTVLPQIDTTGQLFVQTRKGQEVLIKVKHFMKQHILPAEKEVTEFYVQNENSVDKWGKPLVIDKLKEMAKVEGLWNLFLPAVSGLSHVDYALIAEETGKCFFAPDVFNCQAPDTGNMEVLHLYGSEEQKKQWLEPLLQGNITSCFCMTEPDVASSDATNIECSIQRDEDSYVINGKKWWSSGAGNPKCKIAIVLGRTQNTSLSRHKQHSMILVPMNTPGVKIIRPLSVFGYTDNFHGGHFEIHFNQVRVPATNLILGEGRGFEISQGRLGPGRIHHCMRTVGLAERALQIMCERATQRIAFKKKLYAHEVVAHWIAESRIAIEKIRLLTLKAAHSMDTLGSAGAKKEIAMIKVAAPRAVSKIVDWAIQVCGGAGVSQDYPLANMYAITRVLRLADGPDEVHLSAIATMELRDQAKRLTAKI

Assay [2] has as its target Cyclin-dependent kinase 7 (Homo sapiens, UniProt P50613).
The target in assay [3] is Cyclin-dependent kinase 3 (Homo sapiens, UniProt Q00526).
The target in another assay is T2, Activin receptor type-1B (Homo sapiens, UniProt P36896).
T2 sequence (P36896 whole entry): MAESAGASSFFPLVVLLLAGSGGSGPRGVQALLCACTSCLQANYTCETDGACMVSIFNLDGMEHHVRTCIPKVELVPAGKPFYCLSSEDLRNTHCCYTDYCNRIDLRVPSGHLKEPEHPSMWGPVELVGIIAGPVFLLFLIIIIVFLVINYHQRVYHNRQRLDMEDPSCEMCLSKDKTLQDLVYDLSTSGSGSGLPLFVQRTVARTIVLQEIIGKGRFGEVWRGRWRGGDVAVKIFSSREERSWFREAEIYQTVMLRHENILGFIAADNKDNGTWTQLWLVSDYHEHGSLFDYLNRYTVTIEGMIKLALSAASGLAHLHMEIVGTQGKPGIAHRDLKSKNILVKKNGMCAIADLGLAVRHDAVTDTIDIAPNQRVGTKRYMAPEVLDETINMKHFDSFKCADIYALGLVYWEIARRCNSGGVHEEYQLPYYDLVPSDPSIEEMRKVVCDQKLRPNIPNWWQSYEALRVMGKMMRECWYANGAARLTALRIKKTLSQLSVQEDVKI

Assay [4] addresses Casein kinase I isoform gamma-1 (Homo sapiens, UniProt Q9HCP0).
Assay [5] concerns the target Serine/threonine-protein kinase SIK2 (Homo sapiens, UniProt Q9H0K1).
Assay [6] has as its target Epithelial discoidin domain-containing receptor 1 (Homo sapiens, UniProt Q08345).
Assay [7] has as its target Serine/threonine-protein kinase MRCK alpha (Homo sapiens, UniProt Q5VT25).
For assay [8], the target named is T3, Interleukin-1 receptor-associated kinase 3 (Homo sapiens, UniProt Q9Y616).
T3 sequence (Q9Y616 whole entry): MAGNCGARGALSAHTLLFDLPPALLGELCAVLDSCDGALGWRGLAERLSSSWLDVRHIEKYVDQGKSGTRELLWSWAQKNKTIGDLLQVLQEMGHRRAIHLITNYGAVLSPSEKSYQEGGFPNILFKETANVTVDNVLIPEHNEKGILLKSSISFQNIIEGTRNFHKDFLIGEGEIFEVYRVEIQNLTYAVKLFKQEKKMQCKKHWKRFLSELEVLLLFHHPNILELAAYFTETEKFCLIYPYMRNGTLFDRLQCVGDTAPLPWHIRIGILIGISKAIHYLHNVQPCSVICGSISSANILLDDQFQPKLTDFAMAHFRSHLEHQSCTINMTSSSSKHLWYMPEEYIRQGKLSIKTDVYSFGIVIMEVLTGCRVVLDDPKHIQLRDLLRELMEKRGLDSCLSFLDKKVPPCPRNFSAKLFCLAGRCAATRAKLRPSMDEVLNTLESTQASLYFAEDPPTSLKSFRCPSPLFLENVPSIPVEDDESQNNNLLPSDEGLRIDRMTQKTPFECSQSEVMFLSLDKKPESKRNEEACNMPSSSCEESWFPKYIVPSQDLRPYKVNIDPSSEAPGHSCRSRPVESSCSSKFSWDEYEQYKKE

In assay [9] the target is Bone morphogenetic protein receptor type-1B (Homo sapiens, UniProt O00238).

Calls of active or inactive are those of the source. Rule as the data show it, for most assays here: actives have a measured Kd and inactives only a lower limit.

These results are taken from ChEMBL document CHEMBL3991601, “The target landscape of clinical kinase drugs” (Science, 2017).
Also: in the data inactive means no Kd found up to 30 µM.

Sequence of LIM domain kinase 1 (P53667 whole entry, the tested form may be a part): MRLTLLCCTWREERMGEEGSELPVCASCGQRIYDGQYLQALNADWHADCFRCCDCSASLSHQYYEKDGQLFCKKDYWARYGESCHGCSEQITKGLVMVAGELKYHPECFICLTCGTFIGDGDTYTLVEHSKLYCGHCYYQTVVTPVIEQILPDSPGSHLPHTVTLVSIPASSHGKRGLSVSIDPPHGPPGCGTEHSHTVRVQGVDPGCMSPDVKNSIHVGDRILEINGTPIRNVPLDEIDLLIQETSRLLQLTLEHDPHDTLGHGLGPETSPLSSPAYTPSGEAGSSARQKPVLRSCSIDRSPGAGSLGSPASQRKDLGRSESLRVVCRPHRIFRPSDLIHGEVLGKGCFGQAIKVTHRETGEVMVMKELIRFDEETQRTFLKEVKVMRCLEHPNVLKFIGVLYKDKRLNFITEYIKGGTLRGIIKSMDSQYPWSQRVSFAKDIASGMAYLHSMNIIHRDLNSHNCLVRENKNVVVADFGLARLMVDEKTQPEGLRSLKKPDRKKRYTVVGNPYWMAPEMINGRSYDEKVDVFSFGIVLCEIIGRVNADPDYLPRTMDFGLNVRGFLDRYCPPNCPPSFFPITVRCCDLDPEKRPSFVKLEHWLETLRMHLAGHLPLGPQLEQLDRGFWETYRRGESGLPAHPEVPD
Sequence of Cyclin-dependent kinase 7 (P50613 whole entry): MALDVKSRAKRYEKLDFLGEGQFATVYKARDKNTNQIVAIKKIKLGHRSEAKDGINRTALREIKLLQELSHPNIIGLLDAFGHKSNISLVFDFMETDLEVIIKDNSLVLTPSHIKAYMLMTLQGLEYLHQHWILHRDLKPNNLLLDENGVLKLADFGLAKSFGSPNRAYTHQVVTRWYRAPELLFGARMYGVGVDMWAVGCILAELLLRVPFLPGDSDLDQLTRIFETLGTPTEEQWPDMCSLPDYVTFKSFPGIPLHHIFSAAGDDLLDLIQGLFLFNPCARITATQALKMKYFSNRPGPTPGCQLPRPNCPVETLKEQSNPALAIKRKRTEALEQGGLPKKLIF
Sequence of Epithelial discoidin domain-containing receptor 1 (Q08345 whole entry, the tested form may be a part): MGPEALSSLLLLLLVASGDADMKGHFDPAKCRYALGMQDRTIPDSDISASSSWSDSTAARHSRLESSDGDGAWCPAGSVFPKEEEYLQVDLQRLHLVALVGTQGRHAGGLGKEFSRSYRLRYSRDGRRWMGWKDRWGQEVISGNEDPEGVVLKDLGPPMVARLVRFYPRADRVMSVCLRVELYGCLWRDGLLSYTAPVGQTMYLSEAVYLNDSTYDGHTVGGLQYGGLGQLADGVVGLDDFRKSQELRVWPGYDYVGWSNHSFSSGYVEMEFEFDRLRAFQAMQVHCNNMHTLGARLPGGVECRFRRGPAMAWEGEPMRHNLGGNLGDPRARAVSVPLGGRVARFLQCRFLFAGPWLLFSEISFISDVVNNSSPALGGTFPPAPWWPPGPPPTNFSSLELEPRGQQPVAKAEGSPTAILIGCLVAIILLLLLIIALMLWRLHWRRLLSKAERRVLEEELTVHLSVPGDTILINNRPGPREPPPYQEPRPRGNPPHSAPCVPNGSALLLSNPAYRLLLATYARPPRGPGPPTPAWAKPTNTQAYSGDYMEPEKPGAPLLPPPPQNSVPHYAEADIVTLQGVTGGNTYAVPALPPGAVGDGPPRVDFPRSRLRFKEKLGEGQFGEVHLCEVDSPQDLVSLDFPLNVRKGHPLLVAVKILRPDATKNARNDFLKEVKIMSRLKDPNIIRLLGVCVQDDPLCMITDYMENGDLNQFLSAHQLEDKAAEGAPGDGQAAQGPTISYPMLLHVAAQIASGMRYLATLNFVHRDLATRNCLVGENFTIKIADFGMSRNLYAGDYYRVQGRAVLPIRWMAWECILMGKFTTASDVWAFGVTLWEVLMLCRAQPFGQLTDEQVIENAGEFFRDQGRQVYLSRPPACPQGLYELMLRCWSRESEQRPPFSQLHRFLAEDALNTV
Sequence of Serine/threonine-protein kinase MRCK alpha (Q5VT25 whole entry): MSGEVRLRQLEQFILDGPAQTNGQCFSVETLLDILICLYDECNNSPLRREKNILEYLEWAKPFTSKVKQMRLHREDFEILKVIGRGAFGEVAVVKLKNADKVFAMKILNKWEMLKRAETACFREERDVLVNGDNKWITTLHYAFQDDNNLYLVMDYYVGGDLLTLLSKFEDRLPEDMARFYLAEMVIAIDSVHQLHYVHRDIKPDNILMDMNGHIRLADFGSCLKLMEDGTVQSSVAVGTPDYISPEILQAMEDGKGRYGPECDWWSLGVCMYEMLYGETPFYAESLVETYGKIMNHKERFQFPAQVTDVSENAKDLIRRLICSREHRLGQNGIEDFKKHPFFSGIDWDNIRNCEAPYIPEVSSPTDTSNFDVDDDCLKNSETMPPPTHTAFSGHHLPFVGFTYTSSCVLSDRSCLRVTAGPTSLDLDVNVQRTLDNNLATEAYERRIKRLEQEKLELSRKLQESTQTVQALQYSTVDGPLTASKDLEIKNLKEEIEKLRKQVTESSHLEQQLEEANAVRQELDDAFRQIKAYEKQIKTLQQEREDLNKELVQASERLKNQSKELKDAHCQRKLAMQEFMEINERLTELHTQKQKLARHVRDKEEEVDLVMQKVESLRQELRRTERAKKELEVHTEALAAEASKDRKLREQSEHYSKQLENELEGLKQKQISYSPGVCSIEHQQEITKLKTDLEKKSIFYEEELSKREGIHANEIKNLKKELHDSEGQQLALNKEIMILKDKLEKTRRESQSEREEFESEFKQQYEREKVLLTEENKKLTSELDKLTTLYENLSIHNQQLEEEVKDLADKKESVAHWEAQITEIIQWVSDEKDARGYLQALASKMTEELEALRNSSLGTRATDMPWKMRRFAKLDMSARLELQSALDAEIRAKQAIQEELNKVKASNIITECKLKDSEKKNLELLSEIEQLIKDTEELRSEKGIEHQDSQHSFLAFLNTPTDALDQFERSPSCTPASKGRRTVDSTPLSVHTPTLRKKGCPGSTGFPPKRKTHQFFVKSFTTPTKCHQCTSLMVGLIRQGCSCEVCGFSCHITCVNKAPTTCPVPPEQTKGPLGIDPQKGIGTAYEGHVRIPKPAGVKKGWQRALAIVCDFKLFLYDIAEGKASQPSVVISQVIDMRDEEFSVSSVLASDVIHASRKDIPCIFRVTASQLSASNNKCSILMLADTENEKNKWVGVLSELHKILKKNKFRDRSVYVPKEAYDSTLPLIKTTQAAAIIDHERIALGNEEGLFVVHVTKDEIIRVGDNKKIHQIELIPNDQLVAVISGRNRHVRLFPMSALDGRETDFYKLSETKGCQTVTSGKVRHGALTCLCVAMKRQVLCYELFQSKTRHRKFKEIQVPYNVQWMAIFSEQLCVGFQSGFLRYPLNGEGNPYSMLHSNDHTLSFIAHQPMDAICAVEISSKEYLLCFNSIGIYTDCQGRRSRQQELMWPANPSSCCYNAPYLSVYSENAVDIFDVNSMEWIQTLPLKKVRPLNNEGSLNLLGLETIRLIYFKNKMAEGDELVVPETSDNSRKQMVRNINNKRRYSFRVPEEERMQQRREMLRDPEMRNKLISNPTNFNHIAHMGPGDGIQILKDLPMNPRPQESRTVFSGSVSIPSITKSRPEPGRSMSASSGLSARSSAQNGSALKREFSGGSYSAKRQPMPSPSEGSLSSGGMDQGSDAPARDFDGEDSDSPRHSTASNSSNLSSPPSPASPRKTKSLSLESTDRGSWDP
Sequence of Cyclin-dependent kinase 3 (Q00526 whole entry): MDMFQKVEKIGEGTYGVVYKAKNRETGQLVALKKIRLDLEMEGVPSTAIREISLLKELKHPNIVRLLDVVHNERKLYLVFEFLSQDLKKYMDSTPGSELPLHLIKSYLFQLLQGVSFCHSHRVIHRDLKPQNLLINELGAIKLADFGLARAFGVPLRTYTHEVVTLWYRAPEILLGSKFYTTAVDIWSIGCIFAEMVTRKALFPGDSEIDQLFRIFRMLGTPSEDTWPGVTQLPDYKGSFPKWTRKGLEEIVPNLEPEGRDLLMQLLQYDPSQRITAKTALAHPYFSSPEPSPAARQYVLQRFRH
Sequence of Serine/threonine-protein kinase SIK2 (Q9H0K1 whole entry, the tested form may be a part): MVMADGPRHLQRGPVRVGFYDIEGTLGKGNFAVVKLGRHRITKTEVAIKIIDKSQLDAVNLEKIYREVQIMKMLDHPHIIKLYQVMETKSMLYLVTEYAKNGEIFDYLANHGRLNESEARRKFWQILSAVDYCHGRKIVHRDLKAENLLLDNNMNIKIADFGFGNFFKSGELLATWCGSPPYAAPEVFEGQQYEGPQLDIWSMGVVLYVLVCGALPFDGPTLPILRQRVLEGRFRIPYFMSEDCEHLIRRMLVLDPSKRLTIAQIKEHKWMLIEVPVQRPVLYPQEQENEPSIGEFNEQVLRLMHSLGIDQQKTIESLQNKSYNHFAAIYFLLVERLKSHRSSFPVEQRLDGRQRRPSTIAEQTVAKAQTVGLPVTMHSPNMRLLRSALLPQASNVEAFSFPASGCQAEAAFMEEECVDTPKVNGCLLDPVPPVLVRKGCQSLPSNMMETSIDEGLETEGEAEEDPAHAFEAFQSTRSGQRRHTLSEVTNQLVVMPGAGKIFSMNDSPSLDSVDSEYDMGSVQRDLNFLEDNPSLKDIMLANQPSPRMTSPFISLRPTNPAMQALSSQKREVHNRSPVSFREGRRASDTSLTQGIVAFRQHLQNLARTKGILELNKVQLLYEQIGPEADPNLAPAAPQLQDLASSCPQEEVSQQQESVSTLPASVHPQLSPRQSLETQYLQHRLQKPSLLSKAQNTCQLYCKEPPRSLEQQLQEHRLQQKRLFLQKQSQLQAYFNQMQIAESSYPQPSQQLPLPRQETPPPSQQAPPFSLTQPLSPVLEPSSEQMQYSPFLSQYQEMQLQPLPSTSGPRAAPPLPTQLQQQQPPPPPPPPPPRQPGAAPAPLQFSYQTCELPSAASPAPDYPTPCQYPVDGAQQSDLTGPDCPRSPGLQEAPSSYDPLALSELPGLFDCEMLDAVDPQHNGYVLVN

By Kd is commonly meant the constant that tells how readily two partners part at equilibrium. Turning to `C=CCN(/C=C1/C(=O)O[C@H](COC)[C@@]2(C)C1=C(O)C(=O)C1=C2[C@H](OC(C)=O)C[C@]2(C)C(=O)CC[C@@H]12)CC=C` [SONOLISIB], the Kd (on LIM domain kinase 1; in [1]; in [2]; in [3]; at Activin receptor type-1B; in assay [4]) was > 30 µM (inactive) throughout. Further, the Kd in assay [5], in assay [6], in assay [7], in assay [8] and in assay [9] was > 30 µM (inactive) in each case.
With `COCCN1CCN(Cc2ccc(-c3n[nH]c4c3C(=O)c3c(NC(=O)NN5CCOCC5)cccc3-4)cc2)CC1` [RGB-286638], the Kd is > 30 µM (inactive) at LIM domain kinase 1; > 30 µM (inactive) in assay [1]; 0.154 µM (active) in [2]; > 30 µM (inactive) in [3]; > 30 µM (inactive) on Activin receptor type-1B; 3.18 µM (active) in [4]. The Kd in assay [5] was 0.207 µM (active); in [6] it was > 30 µM (inactive); in assay [7], 1.09 µM (active); in assay [8], > 30 µM (inactive); in [9], > 30 µM (inactive).
Take `COc1cccc(Nc2ncnn3ccc(CN4CC[C@@H](N)[C@H](O)C4)c23)c1` [BMS-690514]: the Kd (on LIM domain kinase 1; in [1]; in assay [2]; in assay [3]; at Activin receptor type-1B; in assay [4]) was > 30 µM (inactive) each time. Moreover, the Kd in assay [5] was 0.048 µM (active); in assay [6] it was > 30 µM (inactive); in [7], > 30 µM (inactive); in assay [8], > 30 µM (inactive); in assay [9] it was > 30 µM (inactive).
On to `Cn1c(=O)c(F)c(Nc2ccc(I)cc2F)c2c(=O)n(C[C@@H](O)CO)cnc21` [TAK-733], for which the Kd (at LIM domain kinase 1; in assay [1]; in assay [2]; in assay [3]; at Activin receptor type-1B; in assay [4]) was > 30 µM (inactive) in each case. Also, the Kd in assay [5], in assay [6], in assay [7], in assay [8] and in assay [9] was > 30 µM (inactive) in each case.
For `COc1cc(Nc2ncc(F)c(Nc3ccc4c(n3)N(COP(=O)(O)O)C(=O)C(C)(C)O4)n2)cc(OC)c1OC` [FOSTAMATINIB], the Kd (on LIM domain kinase 1; in assay [1]; in [2]; in assay [3]; on Activin receptor type-1B; in assay [4]) was > 30 µM (inactive) throughout. For the same compound, the Kd in assay [5] was > 30 µM (inactive); in assay [6] it was > 30 µM (inactive); in assay [7], > 30 µM (inactive); in [8] it was 1.29 µM (active); in [9], > 30 µM (inactive).
As to `C#Cc1cccc(Nc2ncnc3cc4c(cc23)OCCOCCOCCO4)c1` [ICOTINIB], the Kd (at LIM domain kinase 1; in assay [1]; in assay [2]; in assay [3]; at Activin receptor type-1B; in assay [4]) was > 30 µM (inactive) each time. Also, the Kd in [5], in assay [6], in assay [7], in assay [8] and in [9] was > 30 µM (inactive) in each case.
As to `Cn1cc(-c2[nH]c3cc(NC(=O)[C@H](N)C4CCCCC4)cc4c3c2C=NNC4=O)cn1`, the Kd at LIM domain kinase 1 is 0.133 µM (active); in assay [1], > 30 µM (inactive); in assay [2], > 30 µM (inactive); in assay [3], > 30 µM (inactive); at Activin receptor type-1B, > 30 µM (inactive); in assay [4], > 30 µM (inactive). For the same compound, the Kd was 0.047 µM (active) in [5]; > 30 µM (inactive) in assay [6]; > 30 µM (inactive) in assay [7]; > 30 µM (inactive) in [8]; 2.01 µM (active) in assay [9].
Consider `FC(F)(F)c1ccc(CNc2ccc(Cc3c[nH]c4ncc(Cl)cc34)cn2)cn1` [PEXIDARTINIB], for which the Kd (on LIM domain kinase 1; in [1]; in assay [2]; in assay [3]; on Activin receptor type-1B; in [4]) was > 30 µM (inactive) throughout. Moreover, the Kd in assay [5], in assay [6], in assay [7], in assay [8] and in assay [9] was > 30 µM (inactive) throughout.
As for `CC(C)(O)CC(=O)NCCn1ccc2ncnc(Nc3ccc(Oc4cccc(C(F)(F)F)c4)c(Cl)c3)c21` [TAK-285], the Kd (on LIM domain kinase 1; in assay [1]; in assay [2]; in assay [3]; at Activin receptor type-1B; in [4]) was > 30 µM (inactive) in each case. For the same compound, the Kd was > 30 µM (inactive) in assay [5]; > 30 µM (inactive) in assay [6]; > 30 µM (inactive) in assay [7]; > 30 µM (inactive) in assay [8]; 1.63 µM in assay [9].
For `Cc1cc(C(=O)Nc2cc(Oc3ccc4nc(NC(=O)C5CC5)cn4n3)ccc2C)n(C)n1` [TAK-593], the Kd (on LIM domain kinase 1; in assay [1]; in assay [2]; in assay [3]; on Activin receptor type-1B; in [4]) was > 30 µM (inactive) in each case. The Kd in assay [5] is > 30 µM (inactive); in assay [6], 14.7 µM (active); in [7], > 30 µM (inactive); in [8], > 30 µM (inactive); in assay [9], > 30 µM (inactive).
As for `NC[C@@](O)(c1ccc(Cl)cc1)c1ccc(-c2cn[nH]c2)cc1` [AT-13148], the Kd (on LIM domain kinase 1; in assay [1]; in assay [2]; in [3]; at Activin receptor type-1B; in [4]) was > 30 µM (inactive) each time. For the same compound, the Kd in assay [5], in [6], in [7], in [8] and in [9] was > 30 µM (inactive) each time.
